Source: paper PMC9821843, “Powerful Potential of Polyfluoroalkyl-Containing 4-Arylhydrazinylidenepyrazol-3-ones for Pharmaceuticals” (Molecules, 2022)
In brackets after ≈: the same amount, converted by molar mass. Like-named read-outs stand apart in the source and are kept apart here.

What was measured:
[1] = biological target: T1, human erythrocyte acetylcholinesterase (AChE, EC 3.1.1.7) (Homo sapiens, UniProt P22303); assay: Inhibition of human erythrocyte acetylcholinesterase (Ellman assay); assay type: biochemical; details: read-out: Inhibition % at 20 µM, Human AChE
T1 construct: human erythrocyte acetylcholinesterase (AChE, EC 3.1.1.7); purchased Sigma-Aldrich (Saint Louis, MO, USA); host or cells: human erythrocytes
T1 sequence (P22303 32-617 isoform P22303-2 limits assumed): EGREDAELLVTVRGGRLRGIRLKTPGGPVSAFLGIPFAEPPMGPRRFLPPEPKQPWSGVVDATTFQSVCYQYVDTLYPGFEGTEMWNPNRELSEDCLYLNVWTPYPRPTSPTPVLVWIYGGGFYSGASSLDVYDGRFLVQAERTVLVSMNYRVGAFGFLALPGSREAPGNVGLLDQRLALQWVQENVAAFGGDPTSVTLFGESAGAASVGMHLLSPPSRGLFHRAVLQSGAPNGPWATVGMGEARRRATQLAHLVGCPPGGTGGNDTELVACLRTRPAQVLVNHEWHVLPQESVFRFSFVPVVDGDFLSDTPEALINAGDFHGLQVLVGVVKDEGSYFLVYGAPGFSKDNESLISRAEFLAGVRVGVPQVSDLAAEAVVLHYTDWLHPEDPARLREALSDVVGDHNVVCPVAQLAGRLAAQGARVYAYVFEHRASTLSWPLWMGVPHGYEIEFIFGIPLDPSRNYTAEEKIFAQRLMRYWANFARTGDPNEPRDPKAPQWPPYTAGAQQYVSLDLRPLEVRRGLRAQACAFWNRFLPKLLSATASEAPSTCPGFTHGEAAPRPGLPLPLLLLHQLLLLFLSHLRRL
Excerpt: (§1) The following enzymes were purchased from Sigma-Aldrich (Saint Louis, MO, USA): porcine liver carboxylesterase (CES, EC 3.1.1.1), human erythrocyte acetylcholinesterase (AChE, EC 3.1.1.7) and equine serum butyrylcholinesterase (BChE, EC 3.1.1.8). Substrates for CES, AChE and BChE were 4-nitrophenyl acetate (4-NPA), acetylthiocholine iodide (ATCh) and butyrylthiocholine iodide (BTCh), respectively, and the colorimetric reagent for the AChE and BChE assays was 5,5’-dithio-bis-(2-nitrobenzoic acid) (DTNB) (Sigma-Aldrich). All the kinetic experiments were performed under standard conditions, according to the protocol of IPAC RAS for a reversible inhibitors study.
Reagent blanks consisted of reaction mixtures without enzyme to assess non-enzymatic hydrolysis of substrates.
Test compounds were dissolved in DMSO. Reaction mixtures contained a final DMSO concentration of 2% (v/v). […] Measurements were performed in a Bio-Rad Benchmark Plus microplate reader. Each experiment was performed in triplicate. Plots, linear regressions and values of IC50, were determined using Origin 6.1 for Windows, OriginLab (Northampton, MA, USA).

[2] = ABTS radical cation scavenging activity assay; design: key to ABTS•+-scavenging activity, TEAC (trolox equivalent antioxidant capacity): TEAC = ratio of compound slope to Trolox slope vs ABTS absorbance; details: mean ± SEM; for ABTS•+-scavenging activity, TEAC (trolox equivalent antioxidant capacity): n.a. = inactive
Description: Radical scavenging activity of the compounds was evaluated by the ABTS radical cation (ABTS^•+) scavenging assay by the ability of the compounds to decolorize the ABTS^•+ solution [112] with some modifications. Trolox was used as a reference standard. Edaravone was used as the comparison compound. All tested compounds and standards were dissolved in DMSO. ABTS (2,2′-azinobis-(3-ethylbenzothiazoline-6-sulfonic acid)) was purchased from Tokyo Chemical Industry Co. Ltd. (Tokyo, Japan). Potassium persulfate (di-potassium peroxdisulfate), Trolox® (6-hydroxy-2,5,7,8-tetramethychroman-2-carboxylic acid), ascorbic acid, DMSO and HPLC-grade ethanol were obtained from Sigma-Aldrich Chemical Co. Aqueous solutions were prepared using deionized water.
The solution of ABTS^•+ was produced by mixing 7 mM ABTS aqueous solution with 2.45 mM potassium persulfate aqueous solution in equal quantities and allowing them to react for 12–16 h at room temperature in the dark. Radical scavenging capacity of the compounds was analyzed by mixing 10 μL of compound with 240 μL of ABTS^•+ working solution in ethanol (100 μM final concentration), and after 1 h of incubation at 30 °C the decrease in absorbance was measured spectrophotometrically at 734 nm using a Bio-Rad xMark microplate UV/VIS spectrophotometer (Bio-Rad, Hercules, CA, USA). The compounds were tested in the concentration range of 5 × 10^–7–4 × 10^–4 M. Ethanol blanks were run in each assay. Values were obtained from five replicates of each sample and three independent experiments.
Antioxidant activity was calculated as Trolox equivalent antioxidant capacity (TEAC values), consisting of the ratio between the slopes obtained from the linear correlation for concentrations of the tested compounds and Trolox with absorbance of ABTS radical. For the test compounds, which reduce ABTS^•+ absorbance by more than 60% at 100 µM, we also determined IC50 values as 50% reduction of the ABTS radical. The calculations were carried out using Origin 6.1 for Windows. Results were presented as mean ± SEM, calculated using GraphPad Prism version 6.05 for Windows, GraphPad Software.

[3] = Oxygen radical absorbance capacity (ORAC-FL) assay; details: n.a. = inactive; i.t.s. = interferes with test system
Excerpt: We evaluated the primary antioxidant activity of synthesized 4-AHPs 5–9 in comparison with their non-fluorinated analogues 9a,b using three standard tests: ABTS, FRAP (ferric reducing antioxidant power) and ORAC (oxygen radical absorbance capacity) assays. The ABTS assay evaluates the binding of a model ABTS radical cation (ABTS^•+), which is realized by the mechanism of single electron transfer (SET) and/or hydrogen atom transfer (HAT). The FRAP assay measures the ability of compounds to reduce the ferric 2,4,6-tripyridyl-s-triazine complex [Fe(TPTZ)2]^3+ to [Fe(TPTZ)2]^2+, which occurs exclusively by the SET mechanism. The ORAC-FL assay measures the oxidative degradation of the fluorescent molecule (FL – fluorescein) after being mixed with a free peroxyl radical generator such as 2,2′-azobis-(2-methylpropionamidine) dihydrochloride (AAPH) in the presence of antioxidant (tested compound). The ORAC-FL test describes the antioxidants’ ability to yield the hydrogen atom and, consequently, it is a HAT-based assay. Trolox was used in all tests as a reference antioxidant: the antioxidant activity of the test compounds was referred to the activity of Trolox. The well-known antioxidant Edaravone was also used for comparison.
The ORAC assay was performed according to the known method, with minor variations and described by us recently.

[4] = system: Neisseria gonorrhoeae ATCC 49226/NCTC 12700; assay: Antibacterial activity against Neisseria gonorrhoeae; assay type: cell-based; details: read-out: MIC against Neisseria gonorrhoeae
Description: Antibacterial activity testing was done on the growth medium Difco GC medium base (Becton Dickinson, Franklin Lakes, NJ, USA) supplemented with 1% IsoVitaleX. Dilutions of chemical compounds were carried out in the range of 250–0.12 μg/mL in 24 well sterile plates (Sarstedt, Germany). Daily cultures of control bacterial strains were identified on a VITEK MS analyzer (BioMérieux, Marcy-l’Étoile, France) by MALDI-TOF mass spectrometry. The inoculation dose of N. gonorrhoeae inoculum was 10^5 CFU/mL.

[5] = Acute toxicity evaluation in mice (ip); details: CD-1, mouse, in vivo, 300 mg/kg
Description: The toxicity evaluation was performed on CD-1 mice. […] The tested compounds in 1% starch mucilage were injected intraperitoneally into three mice. Then, animals were observed during 14 days, the number of deaths was counted and % of viability calculated.

Sprague-Dawley (SD) rats = assay: Hot plate test (analgesic activity); assay type: in vivo; details: ip, dose 15 mg/kg; for change in vivo at 15 mg/kg: Rattus norvegicus, hot plate test, rats, n.a. = inactive (p > 0.05)
Description: The hot plate test was conducted according to established guidelines on Sprague-Dawley (SD) rats (3 male and 3 female rodents per group). The compounds were intraperitoneally administered in the form of suspensions in 1% starch mucilage. Negative control group animals received vehicle only (1% starch mucilage). Diclofenac sodium (Hemofarm, Vršac, Serbia, 10 mg/kg in 1% starch mucilage solution) or metamizole sodium (PAO Biosynthesis, Sun Pharma, Penza, Russia, 15 mg/kg in 1% starch mucilage solution) were used as reference drugs. One and two hours after the injection, rats were placed on an electrically heated to 50 °C plate (Hot plate 60,200 series, TSE-systems, Bad Homburg, Germany) in a Plexiglas cylindrical restrainer (19 cm diameter × 30 cm). The nociceptive response time was measured by observing the appearance of rats’ movements (e.g., jumping, hind paw licking or shaking). Maximal cutoff time was set as 30 s regardless of the response in order to preclude skin damage.
Differences between the values of the latency period for the treated (experimental) and control groups of animals were considered significant at p ≤ 0.05.

[6] = biological target: T2, equine serum butyrylcholinesterase (BChE, EC 3.1.1.8) (Equus caballus, UniProt P81908); assay: Inhibition of equine serum butyrylcholinesterase (Ellman assay); assay type: biochemical; details: read-out: Inhibition % at 20 µM, Equine BChE
T2 construct: equine serum butyrylcholinesterase (BChE, EC 3.1.1.8); purchased Sigma-Aldrich (Saint Louis, MO, USA); host or cells: equine serum
T2 sequence (P81908 whole entry): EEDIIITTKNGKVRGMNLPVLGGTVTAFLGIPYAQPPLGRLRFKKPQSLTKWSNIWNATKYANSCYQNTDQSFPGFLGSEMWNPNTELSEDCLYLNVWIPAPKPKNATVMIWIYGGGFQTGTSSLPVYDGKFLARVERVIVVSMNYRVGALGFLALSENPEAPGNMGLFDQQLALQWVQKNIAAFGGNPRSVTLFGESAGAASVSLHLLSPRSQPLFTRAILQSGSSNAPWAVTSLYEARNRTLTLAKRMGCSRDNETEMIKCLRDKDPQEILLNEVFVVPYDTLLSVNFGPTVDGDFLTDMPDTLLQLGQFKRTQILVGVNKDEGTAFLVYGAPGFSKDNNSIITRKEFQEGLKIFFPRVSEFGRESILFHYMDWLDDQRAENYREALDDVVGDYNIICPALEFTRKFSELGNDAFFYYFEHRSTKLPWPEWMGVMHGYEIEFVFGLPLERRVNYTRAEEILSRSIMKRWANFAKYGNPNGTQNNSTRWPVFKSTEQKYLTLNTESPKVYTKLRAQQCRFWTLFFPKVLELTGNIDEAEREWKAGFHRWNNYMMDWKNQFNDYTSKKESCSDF
Excerpt: as §1
Final concentrations of reactants were 0.33 mM DTNB, 0.02 unit/mL of AChE or BChE and 1 mM of substrate (ATCh or BTCh, respectively). Reagent blanks consisted of reaction mixtures without enzyme to assess non-enzymatic hydrolysis of substrates.
Test compounds were dissolved in DMSO. Reaction mixtures contained a final DMSO concentration of 2% (v/v). […] Substrate was then added and residual enzyme activity relative to an inhibitor-free control was measured using a Bio-Rad Benchmark Plus microplate reader (Marnes-la-Coquette, France).
Measurements were performed in a Bio-Rad Benchmark Plus microplate reader. Each experiment was performed in triplicate. Plots, linear regressions and values of IC50, were determined using Origin 6.1 for Windows, OriginLab (Northampton, MA, USA).

[7] = system: Microsporum canis RCPF F 1643/1585; assay: Antifungal susceptibility testing, M. canis; details: Microsporum canis, RCPFF1643/1585, read-out: MIC for fungi strains inhibition, M. canis
Description: (§2) The solvent was DMSO. […] In each test, a growth control and a sterility control were used.

[8] = system: Trichophyton rubrum RCPF F 1408; assay: Antifungal susceptibility testing, T. rubrum; details: Trichophyton rubrum, RCPFF1408, read-out: MIC for fungi strains inhibition, T. rubrum
Description: as §2

[9] = system: Candida albicans RCPF Y 401/NCTC 885/653; assay: Antifungal susceptibility testing, C. albicans; details: NCTC885, read-out: MIC for fungi strains inhibition, C. albicans
Description: as §2

[10] = system: Epidermophyton floccosum RCPF F 1659/17; assay: Antifungal susceptibility testing, E. floccosum; details: Epidermophyton floccosum, RCPFF1659/17, read-out: MIC for fungi strains inhibition, E. floccosum
Description: as §2

[11] = 2 h, read-out: Latent Period Prolongation, % 2 h
[12] = 1 h, read-out: Latent Period Prolongation, % 1 h

Row | Compound | inhibition at 20 µM [1] | IC50 [2] | ABTS•+-scavenging activity, TEAC (trolox equivalent antioxidant capacity) [2] | ORAC-FL (TE, antioxidant activity in Trolox equivalents) [3] | MIC [4] | survival at 14 days [5] | change in vivo at 15 mg/kg (Sprague-Dawley (SD) rats; [11]) | inhibition at 20 µM [6] | change in vivo at 15 mg/kg (Sprague-Dawley (SD) rats; [12]) | MIC [7] | MIC [8] | MIC [9] | MIC [10] | analgesic activity in the hot plate test (Sprague-Dawley (SD) rats; SD rats, 1 and 2 h)
1 | COc1ccc(N/N=C2\C(=O)N(c3ccccc3)N=C2C(F)(F)F)cc1 [5g, (4Z)-4-(2-(4-Methoxyphenyl)hydrazinylidene)-2-phenyl-5-(trifluoromethyl)-2,4-dihydro-3H-pyrazol-3-one] | 12.3 ± 2.3% | 55.6 ± 2.4 µM | 0.35 ± 0.03 | 2.20 ± 0.36 | 0.9 mg/L (≈ 2.48 µM) | 100% | 76.9% |  |  |  |  |  |  | 
2 | O=C1/C(=N\Nc2ccc(F)cc2)C(C(F)(F)F)=NN1c1ccccc1 [5h, (4Z)-4-[2-(4-Fluorophenyl)hydrazinylidene]-2-phenyl-5-(trifluoromethyl)-2,4-dihydro-3H-pyrazol-3-one] | 7 ± 1.2% |  | 0.05 ± 0.004 |  | 125 mg/L (≈ 357 µM) | 100% | 67% | 3.2 ± 0.6% | 66% | > 200 mg/L | > 200 mg/L | > 200 mg/L | > 200 mg/L | 
3 | CCOC(=O)c1ccc(N/N=C2\C(=O)N(c3ccccc3)N=C2C(F)(F)F)cc1 [5l, (4Z)-4-[2-(4-Ethoxycarbonyl)hydrazinylidene]-2-phenyl-5-(trifluoromethyl)-2,4-dihydro-3H-pyrazol-3-one] | 16.7 ± 1.5% |  |  | i.t.s. | 31.2 mg/L (≈ 77.2 µM) | 100% | 107% | 3.2 ± 0.8% | 68.1% |  |  |  |  | 
4 | Cc1ccc(N/N=C2\C(=O)N(c3ccc(S(C)(=O)=O)cc3)N=C2C(F)(F)F)cc1 [5q, (4Z)-2-[4-(Methylsulfonyl)phenyl]-4-[2-(4-methylphenyl)hydrazinylidene]-5-(trifluoromethyl)-2,4-dihydro-3H-pyrazol-3-one] | 4.3 ± 0.8% |  | 0.02 ± 0.001 | i.t.s. | > 250 mg/L | 100% | 110% |  | 104% |  |  |  |  | 
5 | O=C1/C(=N\Nc2ccccc2Cl)C(C(F)(F)C(F)(F)F)=NN1c1ccccc1 [6c, (4Z)-4-[2-(2-Chlorophenyl)hydrazinylidene]-5-(pentafluoroethyl)-2-phenyl-2,4-dihydro-3H-pyrazol-3-one] | 3.3 ± 0.6% |  |  |  | > 250 mg/L | 100% | 51% | 6.5 ± 1% | 75% | > 200 mg/L | 200 mg/L (≈ 480 µM) | > 200 mg/L | > 200 mg/L | 
6 | O=C1/C(=N\Nc2c(Cl)cccc2Cl)C(C(F)(F)C(F)(F)F)=NN1c1ccccc1 [6e, (4Z)-4-[2-(2,6-Dichlorophenyl)hydrazinylidene]-5-(pentafluoroethyl)-2-phenyl-2,4-dihydro-3H-pyrazol-3-one] | 6 ± 1% |  |  |  | 62.5 mg/L (≈ 139 µM) | 100% |  | 6.2 ± 1.2% |  | > 200 mg/L | > 200 mg/L | > 200 mg/L | 200 mg/L (≈ 443 µM) | inactive
7 | CCOC(=O)c1ccc(N/N=C2\C(=O)N(c3ccccc3)N=C2C(F)(F)C(F)(F)F)cc1 [6g, (4Z)-4-[2-(4-Ethoxycarbonylphenyl)hydrazinylidene]-5-(pentafluoroethyl)-2-phenyl-2,4-dihydro-3H-pyrazol-3-one] | 6.2 ± 0.9% |  |  |  | 15.6 mg/L (≈ 34.3 µM) | 100% | 73% | 4.2 ± 0.8% | 67% | > 200 mg/L | > 200 mg/L | > 200 mg/L | > 200 mg/L | 
